Results reported in US5104859A, “Continuous administration of adenosine to reduce pulmonary vascular resistance” (priority 1990, dated 1992).
Entries after “also recorded” stand apart in the source; their conditions may differ.

Tests used:
[1] = set-up: species or system human; conditions: in vivo
Protocol: (§1) The mean hypotensive period was 32±8 min.

[2] = test system: pulmonary vascular resistance; conditions: systemic vasodilator doses
[3] = Clinical observations during and after cardiopulmonary bypass
Protocol: During cardiopulmonary bypass (CPB), mean arterial blood pressure (MABP) above 70 mmHg was treated with the vasodilator sodium nitroprusside (SNP), except in the final phase or rewarming. CPB was performed with SARN roller pump and a Shiley oxygenator (100A) primed with 2000 ml crystalloid solution (75 mg heparin). The perfusion rate was kept at approximately […] body surface. Moderate hypothermia (25° C.) was induced. Cardioplegia was obtained with Ringer's solution (with added potassium up to 20 mM/1). Heparin (3 mg/kg) was administered as a bolus injection before cannulation. The heparin effect was controlled by measurements of activated clotting time. (Hemocron® Int. Technidyne Corp, USA). […] At the termination of CPB, the heparin effect was antagonized with protamine (c. 1.3 mg/mg heparin). ACT was checked 10-20 min after the protamine injection. ACT values 120 sec were considered satisfactory.
Platelet count (Linson 431 A cell counter) and hematocrit were determined in arterial samples before anesthesia, after thoracotomy, during CPB at 10, 20, 40, 60, 80 and 100 min, 30 min after CPB and on the postoperative day. Platelet counts were expressed in percentage of preanesthesia levels and were corrected for hemodilution. MABP was monitored continuously via a catheter introduced in the radial artery. All patients received hypertonic mannitol (1-1.5 g/kg) during CPB and urine production was calculated as ml/.min of CPB (Table VI).
Postoperative bleeding was measured as the blood loss from the tube drainage from the end of operation until the postoperative morning.
In six cases the plasma adenosine levels were determined by high performance liquid chromatography (HPLC) (Fredholm and Sollevi, J. Physiol. (London), 313: 351-67 (1981) in arterial and in venous (venous lines to the oxygenator) blood. The adenosine metabolites inosine, hypoxanthine and uric acid were also determined by HPLC. The samples were collected as previously described (Sollevi, Acta. Physiol. Scand., 121: 165-72 (1984) at the intervals of 10, 20, 40 and 80 minutes during CPB and 20 minutes after CPB.
Statistical significance (controls v. adenosine group) was determinted with Student's t-test for unpaired data. For significance within the groups the Wilcoxon Rank Sum test was used. p […] 0.05 was regarded as significant.

cardiovascular system = conditions: bolus about 37.5 to 450 micrograms/kg; cited from earlier work
[4] = test system: oxygen consumption and lactate; assay: Oxygen contents, oxygen consumption and lactate during controlled hypotension; format: in vivo, human
Protocol: The correct position was verified by x-ray.
The hemoglobin concentration was determined spectrophotometrically. […] Scand., 120: 171-76 (1984). […] (London), 313: 351-67 (1981). […] Arterial levels of dipyridamole were determined by HPLC. J. Chromatogr., 162: 98-103 (1979). […] Scand. Clin. Lab. Invest., 27:15-19 (1971).
as §1
Oxygen content was derived from the formula SO2*× 1.34×Hb+PO2× […]. Foex et al., Br. J. Anesth., 42: 803-4 (1970). The arteriovenous oxygen content difference (AVDO2) was determined and used to calculate total oxygen consumption (VO2) as the product of AVDO2 and QT. *SO2 =Oxygen saturation.
Oxygen contents, consumptions and lactate concentrations in nine patients before, during and 30 minutes after controlled hypotension are summarized in Table III.

myocardial blood flow = conditions: 0.05 to about 0.1 mg/kg/min
Text: Patients requiring abdominal vascular surgery, such as surgery for an aortic aneurysm, frequently also suffer from ischemic heart disease, or insufficient blood flow to the heart tissue, which may present undesirable complications in such surgery.
For such application, the rate of adenosine administration should be such that there is no more than a 10-20 per cent reduction in blood pressure.

[5] = Control 2, 30 min after hypotension

SMILES: Nc1ncnc2c1ncn2[C@@H]1O[C@H](CO)[C@@H](O)[C@H]1O [adenosine]
- ECG the day after the operation [1]: unchanged
- normal pulmonary vascular resistance [2]: negligible or at most, minor effect
- systemic vasodilation at chosen infusion rate ([3]; 100 ug/kg/min, highest such rate in pilot cases): did not induce systemic vasodilation
- Preoperative urine production ([3]; 0.1 mg per kg per min, with range in parentheses): 4.1 (1.1-9.5) ml/min. CPB
- urine production during CPB ([3]; 500 ml/h in controls, p<0.01): 250 mL/h
- MABP during CPB vs placebo ([3]; human, in vivo): did not differ significantly
- postoperative blood loss vs control ([3]; human, in vivo): did not differ
- MABP after CPB ([3]; no intergroup difference at end of operation): slightly lower MABP
- patients with transient creatinine elevation ([3]; one control patient): two
- patients requiring vasodilator treatment ([3]; placebo: seven required nitroprusside): No patient
- transient elevation of serum creatinine above normal range ([3]; two postoperative days): 10-20%
- vasodilating action of injectable bolus (cardiovascular system): little detectable vasodilating action
- decrease in AVDO2 [4]: 37±5%
- decrease in cerebral AVDO2 [4]: 37±13%
- decrease of VO2 [4]: 13±4%
- Arterial lactate concentration (La) [4, 5]: 1.82 ± 0.20 mmol per liter
- Arterial oxygen tension (PaO2) [4, 5]: 93.0 ± 5.2 mmHg
- Jugular arteriovenous lactate content difference (AVDj La) [4, 5]: -0.06 ± 0.04 mmol per liter
- Jugular arteriovenous oxygen content difference (AVDj O2) [4, 5]: 74.9 ± 7.7 ml. per liter
- Total arteriovenous oxygen content difference (AVDT O2) [4, 5]: 46.8 ± 3.2 ml per liter
- Total oxygen consumption (VT O2) [4, 5]: 235 ± 16 ml per mm.
- arterial lactate concentration ([4]; during / after hypotension): not affected; also recorded: minor increase
- Arterial lactate concentration (La) ([4]; during adenosine): 1.73 ± 0.20 mmol per liter
- Arterial oxygen tension (PaO2) ([4]; during adenosine): 97.5 ± 9.0 mmHg
- Jugular arteriovenous lactate content difference (AVDj La) ([4]; during adenosine): -0.05 ± 0.05 mmol per liter
- Jugular arteriovenous oxygen content difference (AVDj O2) ([4]; during adenosine): 58.1 ± 14.1 ml. per liter
- Total arteriovenous oxygen content difference (AVDT O2) ([4]; during adenosine): 29.3 ± 2.5 ml per liter
- Total oxygen consumption (VT O2) ([4]; during adenosine): 193 ± 16 ml per mm.
- arterial oxygen tension ([4]; during hypotension): remained unchanged
- arterio-jugular lactate content difference ([4]; during hypotension): unaltered
- increase of cardiac output (myocardial blood flow): 10 to 20%
- reduction of blood pressure (myocardial blood flow): 10 to 20 per cent
- oxygen consumption (myocardial blood flow; words): without change in oxygen consumption
